Assay results from patent US20020137929A1, “1 - (3-heterocyclylphenyl) isothiourea, -isourea, -guanidine and -amidine herbicidal agents” (Intellectual Property Department, BASF Aktiengesellschaft, priority 1998, published 2002).

Experiments:
[1] = test system: CASOB (Sicklepod); test: Postemergence herbicidal evaluation; type: in vivo, Cassia obtusifolia; conditions: postemergence
Method in brief: (§1)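 Young plants, roughly two weeks from seeding, receive the active ingredient as a sprayed dispersion (acetone/water 50/50, 0.5% TWEEN 20) at 40 psi. Doses span about 0.0156 to 0.500 kg/ha. A visual score from 0 to 9 compares treated with control plants four to five weeks on.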

[2] = test system: GALAP (Galium); test: Postemergence herbicidal evaluation; type: in vivo, Galium aparine; conditions: postemergence
Method in brief: as §1

[3] = test system: ZEAMX (Corn, Field); test: Postemergence herbicidal evaluation; type: in vivo, Zea mays; conditions: postemergence
Method in brief: as §1

[4] = test system: AMBEL (Ragweed, Common); test: Preemergence herbicidal evaluation; type: in vivo, Ambrosia artemisifolia; conditions: rated 4-5 weeks after treatment, rating scale 0-9
Method in brief: (§2)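 In this greenhouse assay, monocot and dicot seeds are planted in soil and treated prior to emergence with an aqueous acetone spray (about 0.0156-0.500 kg/ha). Plants are assessed visually against control on a 0-9 scale after 4-5 weeks.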

[5] = test system: CHEAL (Lambsquarters, Common); test: Preemergence herbicidal evaluation; type: in vivo, Chenopodium album; conditions: rated 4-5 weeks after treatment, rating scale 0-9
Method in brief: as §2

[6] = test system: IPOHE (Morningglory, Ivyleaf); test: Preemergence herbicidal evaluation; type: in vivo, Ipomoea hederacea; conditions: rated 4-5 weeks after treatment, rating scale 0-9
Method in brief: as §2

[7] = test system: ORYSAT (Rice, Tebonnet); test: Preemergence herbicidal evaluation; type: in vivo, Oryza sativa, (L.) Tebonnet; conditions: rated 4-5 weeks after treatment, rating scale 0-9
Method in brief: as §2

[8] = test system: TRZAWR (Wheat, Winter, cv Riband); test: Preemergence herbicidal evaluation; type: in vivo, Triticum aestivum; conditions: rated 4-5 weeks after treatment, rating scale 0-9
Method in brief: as §2

[9] = test system: ZEAMX (Corn, Field); test: Preemergence herbicidal evaluation; type: in vivo, Zea mays; conditions: rated 4-5 weeks after treatment, rating scale 0-9
Method in brief: as §2

[10] = test system: ECHORC (Watergrass (Calif.)); test: Preemergence weed control under flooded paddy conditions; type: in vivo, Echinochloa oryzoides; conditions: rated 3-4 weeks after treatment
Method in brief: (§3)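 Silt loam, seeds in top 0.5 cm; flood held 1.5-3 cm; test cpd as acetone/water 50/50 into flood water, ~0.0313-0.500 kg/ha a.i.; greenhouse 3-4 wk; visual 0-9 score vs control.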

[11] = test system: CYPIR (Rice Flatsedge); test: as above; type: in vivo, Cyperus iria; conditions: rated 3-4 weeks after treatment
Method in brief: as §3

[12] = test system: CYPSE (Flatsedge); test: as above; type: in vivo, Cyperus serotinus; conditions: rated 3-4 weeks after treatment
Method in brief: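 Seeds or propagules sown in top 0.5 cm of silt loam soil, flooded 1.5 to 3 cm above surface throughout. Compound in 50/50 v/v aqueous/acetone pipetted into flood water at about 0.0313 to 0.500 kg/ha. Visual 0-9 rating versus control after three to four weeks in greenhouse.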

**Q.** `Cc1cc(C)cc(CN2C(=O)CSC2=Nc2cc(-n3c(=O)cc(C(F)(F)F)n(C)c3=O)c(F)cc2Cl)c1` [Compound 146, 3-{4-Chloro-5-{[3-(3,5-dimethylbenzyl)-4-oxo-2-thiazolidinylidene]amino}-2-fluorophenyl}-1-methyl-6-(trifluoromethyl)-2,4(1H,3H)-pyrimidinedione] was tested. Which “Herbicidal rating CASOB” value ([1]; rate 0.0156 kg/ha) did it give?
**A.** Its value is 1.0.

**Q.** What about the “Herbicidal rating CASOB” value ([1]; rate 0.0313 kg/ha) of the same compound?
**A.** The value was 2.0.

**Q.** And the “Herbicidal rating CASOB” value ([1]; rate 0.0625 kg/ha)?
**A.** The value was 4.0.

**Q.** And the “Herbicidal rating GALAP” value ([2]; rate 0.0156 kg/ha)?
**A.** The value was 2.0.

**Q.** And the “Herbicidal rating GALAP” value ([2]; rate 0.0313 kg/ha)?
**A.** The value was 2.0.

**Q.** And the “Herbicidal rating GALAP” value ([2]; rate 0.0625 kg/ha)?
**A.** Its value is 4.0.

**Q.** And the “Herbicidal rating ZEAMX” value ([3]; rate 0.0156 kg/ha)?
**A.** Its value is 4.0.

**Q.** And the “Herbicidal rating ZEAMX” value ([3]; rate 0.0313 kg/ha)?
**A.** The value was 4.5.

**Q.** And the “Herbicidal rating ZEAMX” value ([3]; rate 0.0625 kg/ha)?
**A.** The value was 4.5.

**Q.** And the “Preemergence herbicidal rating AMBEL” value ([4]; rate 0.0156 kg/ha)?
**A.** Its value is 0.0.

**Q.** And the “Preemergence herbicidal rating AMBEL” value ([4]; rate 0.0313 kg/ha)?
**A.** Its value is 0.0.

**Q.** What about the “Preemergence herbicidal rating AMBEL” value ([4]; rate 0.0625 kg/ha) of the same compound?
**A.** Its value is 0.0.

**Q.** And the “Preemergence herbicidal rating AMBEL” value ([4]; rate 0.1250 kg/ha)?
**A.** The value was 0.0.

**Q.** And the “Preemergence herbicidal rating AMBEL” value ([4]; rate 0.2500 kg/ha)?
**A.** The value was 3.0.

**Q.** And the “Preemergence herbicidal rating CHEAL” value ([5]; rate 0.0156 kg/ha)?
**A.** The value was 0.0.

**Q.** What about the “Preemergence herbicidal rating CHEAL” value ([5]; rate 0.0313 kg/ha) of the same compound?
**A.** The value was 9.0.

**Q.** What about the “Preemergence herbicidal rating CHEAL” value ([5]; rate 0.0625 kg/ha) of the same compound?
**A.** The value was 9.0.

**Q.** And the “Preemergence herbicidal rating CHEAL” value ([5]; rate 0.1250 kg/ha)?
**A.** Its value is 9.0.

**Q.** And the “Preemergence herbicidal rating CHEAL” value ([5]; rate 0.2500 kg/ha)?
**A.** Its value is 9.0.

**Q.** What about the “Preemergence herbicidal rating IPOHE” value ([6]; rate 0.0156 kg/ha) of the same compound?
**A.** Its value is 0.0.

**Q.** What about the “Preemergence herbicidal rating IPOHE” value ([6]; rate 0.0313 kg/ha) of the same compound?
**A.** The value was 0.0.

**Q.** And the “Preemergence herbicidal rating IPOHE” value ([6]; rate 0.0625 kg/ha)?
**A.** Its value is 0.0.

**Q.** And the “Preemergence herbicidal rating IPOHE” value ([6]; rate 0.1250 kg/ha)?
**A.** The value was 0.0.

**Q.** And the “Preemergence herbicidal rating IPOHE” value ([6]; rate 0.2500 kg/ha)?
**A.** The value was 0.0.

**Q.** What about the “Preemergence herbicidal rating ORYSAT” value ([7]; rate 0.0156 kg/ha) of the same compound?
**A.** The value was 0.0.

**Q.** And the “Preemergence herbicidal rating ORYSAT” value ([7]; rate 0.0313 kg/ha)?
**A.** The value was 0.0.

**Q.** And the “Preemergence herbicidal rating ORYSAT” value ([7]; rate 0.0625 kg/ha)?
**A.** Its value is 0.0.

**Q.** What about the “Preemergence herbicidal rating ORYSAT” value ([7]; rate 0.1250 kg/ha) of the same compound?
**A.** Its value is 0.0.

**Q.** And the “Preemergence herbicidal rating ORYSAT” value ([7]; rate 0.2500 kg/ha)?
**A.** The value was 1.0.

**Q.** And the “Preemergence herbicidal rating TRZAWR” value ([8]; rate 0.0156 kg/ha)?
**A.** The value was 0.0.

**Q.** And the “Preemergence herbicidal rating TRZAWR” value ([8]; rate 0.0313 kg/ha)?
**A.** The value was 0.0.

**Q.** And the “Preemergence herbicidal rating TRZAWR” value ([8]; rate 0.0625 kg/ha)?
**A.** Its value is 0.0.

**Q.** And the “Preemergence herbicidal rating TRZAWR” value ([8]; rate 0.1250 kg/ha)?
**A.** Its value is 0.0.

**Q.** And the “Preemergence herbicidal rating TRZAWR” value ([8]; rate 0.2500 kg/ha)?
**A.** The value was 1.0.

**Q.** What about the “Preemergence herbicidal rating ZEAMX” value ([9]; rate 0.0156 kg/ha) of the same compound?
**A.** The value was 0.0.

**Q.** What about the “Preemergence herbicidal rating ZEAMX” value ([9]; rate 0.0313 kg/ha) of the same compound?
**A.** The value was 0.0.

**Q.** What about the “Preemergence herbicidal rating ZEAMX” value ([9]; rate 0.0625 kg/ha) of the same compound?
**A.** The value was 0.0.

**Q.** What about the “Preemergence herbicidal rating ZEAMX” value ([9]; rate 0.1250 kg/ha) of the same compound?
**A.** Its value is 0.0.

**Q.** What about the “Preemergence herbicidal rating ZEAMX” value ([9]; rate 0.2500 kg/ha) of the same compound?
**A.** The value was 0.0.

**Q.** And the “herbicidal effect rating, ECHORC” value ([10]; 0.0313 kg/ha)?
**A.** Its value is 9.0.

**Q.** And the “herbicidal effect rating, ECHORC” value ([10]; 0.0625 kg/ha)?
**A.** Its value is 9.0.

**Q.** What about the “herbicidal effect rating, ECHORC” value ([10]; 0.1250 kg/ha) of the same compound?
**A.** The value was 9.0.

**Q.** And the “herbicidal effect rating, ECHORC” value ([10]; 0.2500 kg/ha)?
**A.** The value was 9.0.

**Q.** What about the “herbicidal effect rating, CYPIR” value ([11]; 0.0313 kg/ha) of the same compound?
**A.** Its value is 4.0.

**Q.** And the “herbicidal effect rating, CYPIR” value ([11]; 0.0625 kg/ha)?
**A.** Its value is 6.0.

**Q.** And the “herbicidal effect rating, CYPIR” value ([11]; 0.1250 kg/ha)?
**A.** The value was 6.0.

**Q.** What about the “herbicidal effect rating, CYPIR” value ([11]; 0.2500 kg/ha) of the same compound?
**A.** The value was 7.0.

**Q.** What about the “herbicidal effect rating, CYPSE” value ([12]; 0.0313 kg/ha) of the same compound?
**A.** Its value is 0.0.

**Q.** And the “herbicidal effect rating, CYPSE” value ([12]; 0.0625 kg/ha)?
**A.** Its value is 0.0.

**Q.** And the “herbicidal effect rating, CYPSE” value ([12]; 0.1250 kg/ha)?
**A.** The value was 0.0.

**Q.** And the “herbicidal effect rating, CYPSE” value ([12]; 0.2500 kg/ha)?
**A.** Its value is 0.0.
